# Laboratory results reported in ChEMBL document CHEMBL5244273, “Tuberculosis: An Overview of the Immunogenic Response, Disease Progression, and Medicinal Chemistry Efforts in the Last Decade toward the Development of Potential Drugs for Extensively Drug-Resistant Tuberculosis Strains” (J Med Chem, 2021).
# Key:
# [1] = system: Mycobacterium tuberculosis; assay: Antimycobacterial activity against Mycobacterium tuberculosis H37Rv; assay type: functional
# [2] = system: Mycobacterium tuberculosis; assay: Antimycobacterial activity against Mycobacterium tuberculosis H37Rv assessed as inhibition of bacterial growth by resazurin dye based fluorescence analysis; assay type: functional
SMILES,MIC [1] [µg/mL],also measured
Cc1ccc(-c2nnc(S)o2)cc1,9.6,
COC(=O)c1c(NC(=O)c2c(F)c(F)c(F)c(F)c2F)sc2c1CCCCC2,1,
Sc1nnc(-c2ccccc2Cl)o1,21.2,
Sc1nnc(-c2ccc(Cl)cc2)o1,5.3,
Fc1ccc(-c2nnc(S)o2)cc1,> 25,
Sc1nnc(-c2ccccc2Br)o1,> 25,
CCOC(=O)c1c(NC(=O)c2c(F)c(F)c(F)c(F)c2F)sc(C(N)=O)c1C,0.5,
S=c1[nH]nc(C2CCCCC2)o1,> 25,
CCOC(=O)c1c(NC(=O)c2c(F)c(F)c(F)c(F)c2F)sc2c1CCCCC2,1.9,
Nc1ccsc1-c1nnc(S)o1,21.3,
NC(=O)N1N=C(c2ccc3oc(N)nc3c2)CC1c1cccs1 (configuration not stated),6.25,
CCNS(=O)(=O)c1ccc(-c2nnn(Cc3ccncc3)n2)cc1,,MIC [2]: 0.1 µM
O=[N+]([O-])c1ccc(-c2nnc(S)o2)cc1,3.1,
CNS(=O)(=O)c1ccc(-c2nnn(Cc3ccc(F)cc3)n2)cc1,,MIC [2]: 0.1 µM
CC(=O)N1/C(=C/c2cccc(-c3cnn(C)c3)c2)C(=O)c2ccccc21,,MIC90 [1]: 4.93 µM; MIC99 [1]: 5.61 µM
CC(=O)N1/C(=C/c2ccc(Oc3ccc(Cl)cc3)cc2)C(=O)c2cc(Cl)ccc21,,MIC90 [1]: 6.02 µM; MIC99 [1]: 6.87 µM
NC(=O)N1N=C(c2ccc3oc(S)nc3c2)CC1c1cccs1 (configuration not stated),12.5,
CC(=O)N1N=C(c2ccc3oc(N)nc3c2)CC1c1cccs1 (configuration not stated),6.25,
CC(=O)N1N=C(c2ccc3oc(NC(=O)c4ccccc4)nc3c2)CC1c1cccs1 (configuration not stated),6.25,
O=S(=O)(NCCO)c1ccc(-c2nnn(CC3CCCCO3)n2)cc1 (configuration not stated),,MIC [2]: 0.1 µM
CC(=O)N1N=C(c2ccc3oc(-c4ccccn4)nc3c2)CC1c1cccs1 (configuration not stated),25,
COc1ccccc1-c1nc2cc(C3=NN(C(C)=O)C(c4cccs4)C3)ccc2o1 (configuration not stated),25,
CC(=O)N1/C(=C/c2ccc(Oc3ccc(Cl)cc3)cc2)C(=O)c2ccccc21,,MIC90 [1]: 6.2 µM; MIC99 [1]: 8.4 µM
CC(=O)N1/C(=C/c2ccc(OCc3ccccc3)cc2)C(=O)c2ccccc21,,MIC90 [1]: 1.89 µM; MIC99 [1]: 2.58 µM
O=S(=O)(NCCO)c1ccc(-c2nnn(Cc3ccc(F)cc3)n2)cc1,,MIC [2]: 0.1 µM
CC(=O)N1/C(=C/c2ccc(-c3ccccc3)cc2)C(=O)c2cc(C)ccc21,,MIC90 [1]: > 20 µM; MIC99 [1]: > 20 µM

SMILES,MIC [1] [µg/mL],also measured
CC(=O)N1N=C(c2ccc3oc(S)nc3c2)CC1c1cccs1 (configuration not stated),6.25,
COC(=O)c1c(NC(=O)c2ccc(C)cc2)sc2c1CCCCC2,> 20.2,
CCc1c(C)sc(NC(=O)c2c(F)c(F)c(F)c(F)c2F)c1C(=O)OC(C)C,1,
CC(=O)N1/C(=C/c2ccc(-c3ccsc3)cc2)C(=O)c2ccccc21,,MIC90 [1]: 0.336 µM; MIC99 [1]: 0.6 µM
N#Cc1ccc(Cn2nnc(-c3ccc(S(=O)(=O)NCCO)cc3)n2)cc1,,MIC [2]: 0.1 µM
Sc1nnc(-c2ccccc2I)o1,15.2,
CCCC(=O)Nc1nc2cc(C3=NN(C(C)=O)C(c4cccs4)C3)ccc2o1 (configuration not stated),12.5,
CC(=O)Nc1nc2cc(C3=NN(C(C)=O)C(c4cccs4)C3)ccc2o1 (configuration not stated),25,
O=S(=O)(NCCO)c1ccc(-c2nnn(Cc3ccncn3)n2)cc1,,MIC [2]: 0.1 µM
CC(=O)N1/C(=C/c2ccc(-c3cnn(C)c3)cc2)C(=O)c2ccccc21,,MIC90 [1]: 3.16 µM; MIC99 [1]: 3.66 µM
CC(=O)N1N=C(c2ccc3oc(-c4ccccc4Cl)nc3c2)CC1c1cccs1 (configuration not stated),25,
Cc1c(C(N)=O)sc(NC(=O)c2c(F)c(F)c(F)c(F)c2F)c1C(=O)O,78.4,
Sc1nnc(-c2ccc(-c3ccccc3)cc2)o1,> 25,
COC(=O)c1c(NC(=O)c2ccccc2F)sc2c1CCCCC2,20.2,
CC(=O)N1N=C(c2ccc3oc(C(=O)c4ccccc4)nc3c2)CC1c1cccs1 (configuration not stated),50,
COC(=O)c1c(NC(=O)c2c(F)c(F)c(F)c(F)c2F)sc(-c2ccc(Cl)cc2)c1C(=O)OC,3.5,
CC(=O)N1N=C(c2ccc3oc(NC(=O)c4cccc(Cl)c4)nc3c2)CC1c1cccs1 (configuration not stated),12.5,
COc1cc(-c2nc3cc(C4=NN(C(C)=O)C(c5cccs5)C4)ccc3o2)cc(OC)c1OC (configuration not stated),25,
Sc1nnc(-c2ccc(Br)cc2)o1,> 25,
COC(=O)c1sc(NC(=O)c2c(F)c(F)c(F)c(F)c2F)c(C(=O)ON)c1C,4.9,
CC(=O)N1/C(=C/c2cccc(-c3ccccc3)c2)C(=O)c2ccccc21,,MIC90 [1]: 4.49 µM; MIC99 [1]: 4.94 µM
CC(=O)N1N=C(c2ccc3oc(-c4ccccc4)nc3c2)CC1c1cccs1 (configuration not stated),25,
CNS(=O)(=O)c1ccc(-c2nnn(Cc3ccncc3)n2)cc1,,MIC [2]: 0.1 µM
Oc1cc(O)cc(-c2nnc(S)o2)c1,21,
COc1cccc(-c2nc3cc(C4=NN(C(C)=O)C(c5cccs5)C4)ccc3o2)c1 (configuration not stated),25,
CCOC(=O)c1sc(NC(=O)c2c(F)c(F)c(F)c(F)c2F)c(C(=O)OCC)c1C,7.1,

SMILES,MIC [1] [µg/mL],also measured
O=[N+]([O-])c1ccc([N+](=O)[O-])c(-c2nnc(S)o2)c1,6.7,
O=S(=O)(NCCO)c1ccc(-c2nnn(Cc3ccc(C(F)F)cc3)n2)cc1,,MIC [2]: 0.1 µM
O=[N+]([O-])c1ccc(F)c(-c2nnc(S)o2)c1,> 25,
FC(F)(F)c1ccc(-c2nnc(S)o2)cc1,> 25,
COC(=O)c1c(NC(=O)c2c(F)c(F)c(F)c(F)c2F)sc2c1CCC2,2.1,
Oc1ccc(-c2nnc(S)[nH]2)cc1O,10.5,
NOC(=O)c1c(NC(=O)c2c(F)c(F)c(F)c(F)c2F)sc2c1CCCCC2,15.3,
COc1ccc(-c2nnc(S)o2)cc1,20.8,
CC(=O)N1N=C(c2ccc3oc(-c4ccncc4)nc3c2)CC1c1cccs1 (configuration not stated),25,
CC(=O)N1/C(=C/c2cccc(-c3ccc(OC(F)(F)F)cc3)c2)C(=O)c2ccccc21,,MIC90 [1]: > 20 µM; MIC99 [1]: > 20 µM
CC(=O)N1N=C(c2ccc3oc(NC(=O)c4ccccc4Cl)nc3c2)CC1c1cccs1 (configuration not stated),25,
COc1ccc(-c2nc3cc(C4=NN(C(C)=O)C(c5cccs5)C4)ccc3o2)cc1 (configuration not stated),12.5,
CC(=O)N1N=C(c2ccc3oc(-c4cccnc4)nc3c2)CC1c1cccs1 (configuration not stated),25,
O=S(=O)(NCCO)c1ccc(-c2nnn(Cc3ccc(Cl)cc3)n2)cc1,,MIC [2]: 0.1 µM
CC(=O)N1N=C(c2ccc3oc(NC(=O)C(C)C)nc3c2)CC1c1cccs1 (configuration not stated),25,
CC(=O)N1/C(=C/c2ccc(-c3ccc(OC(F)(F)F)cc3)cc2)C(=O)c2cc(Cl)ccc21,,MIC90 [1]: > 20 µM; MIC99 [1]: > 20 µM
CC(=O)N1/C(=C/c2ccc(-c3ccc(C(F)(F)F)cc3)cc2)C(=O)c2ccccc21,,MIC90 [1]: 2.65 µM; MIC99 [1]: 4.3 µM
CC(=O)N1/C(=C/c2cccc(-c3ccc(C(F)(F)F)cc3)c2)C(=O)c2ccccc21,,MIC90 [1]: 11.6 µM; MIC99 [1]: 17.5 µM
CC(=O)N1/C(=C/c2cccc(-c3ccsc3)c2)C(=O)c2ccccc21,,MIC90 [1]: 3.19 µM; MIC99 [1]: 3.34 µM
CC(=O)N1/C(=C/c2cccc(-c3ccc(F)cc3)c2)C(=O)c2ccccc21,,MIC90 [1]: 5.1 µM; MIC99 [1]: 5.66 µM
COc1ccc(Cn2nnc(-c3ccc(S(=O)(=O)NCCO)cc3)n2)cc1,,MIC [2]: 0.1 µM
CC(=O)N1/C(=C/c2ccc(-c3cnc4ccccc4c3)cc2)C(=O)c2ccccc21,,MIC90 [1]: 0.649 µM; MIC99 [1]: 0.736 µM
NOC(=O)c1c(NC(=O)c2c(F)c(F)c(F)c(F)c2F)sc2c1CCC2,10.6,
COc1ccccc1C(=O)Nc1nc2cc(C3=NN(C(C)=O)C(c4cccs4)C3)ccc2o1 (configuration not stated),25,
CCn1cc(C(=O)O)c(=O)c2cc(F)c(-n3cccc3)cc21 [IRLOXACIN],,MIC50 [1]: 8 µg/mL
